Measurements taken from patent US6768044B1, “Chimeric hydroxyl-phenyl pyruvate dioxygenase, DNA sequence and method for obtaining plants containing such a gene, with herbicide tolerance” (priority 2000, dated 2004).

B1: FAA: HPPD derived from Arabidopsis thaliana, used for comparison (protein, UniProt P93836 1-445, looked up)
4-hydroxyphenylpyruvate …: MGHQNAAVSENQNHDDGAASSPGFKLVGFSKFVRKNPKSDKFKVKRFHHIEFWCGDATNVARRFSWGLGMRFSAKSDLSTGNMVHASYLLTSGDLRFLFTAPYSPSLSAGEIKPTTTASIPSFDHGSCRSFFSSHGLGVRAVAIEVEDAESAFSISVANGAIPSSPPIVLNEAVTIAEVKLYGDVVLRYVSYKAEDTEKSEFLPGFERVEDASSFPLDYGIRRLDHAVGNVPELGPALTYVAGFTGFHQFAEFTADDVGTAESGLNSAVLASNDEMVLLPINEPVHGTKRKSQIQTYLEHNEGAGLQHLALMSEDIFRTLREMRKRSSIGGFDFMPSPPPTYYQNLKKRVGDVLSDDQIKECEELGILVDRDDQGTLLQIFTKPLGDRPTIFIEIIQRVGCMMKDEEGKAYQSGGCGGFGKGNFSELFKSIEEYEKTLEAKQLVG

What was measured:
[1] = system: Pseudomonas fluorescens A32 HPPD; assay type: cell-based; conditions: E. coli culture containing vector pRP C; for end concentration giving identical results (total absence of staining): compound in DMSO solution
Text: pRP C: The vector pRP A (which is described in the application WO 96/38567), which contains a genomic DNA fragment and the encoding region of the Pseudomonas fluorescens A32 HPPD gene, was digested with NcoI, purified and then ligated into the expression vector pKK233-2 (Clontech) which itself had been digested with NcoI, the only cloning site of this vector. The orientation of the gene in the resulting vector pRP C, which allows expression under-the control of the trc promoter, was checked.
(§1) A YT-broth-type culture medium with 1% agarose (Gibco BRL ultra pure) and 5 mM L-tyrosine (Sigma), which contains the selection agent for the above vector pRP C is poured into 96-well plates at 100 μl per well. 10 μl of an E. coli culture in the exponential growth phase which contains the vector pRP C is applied to each well.
A series was established with identical culture medium containing different concentrations (0 mM to 14 mM) of 2-cyano-3-cyclopropyl-l-(2-methylsulphonyl-4-trifluoromethylphenyl)-propane-i,3-dione (EP 0 496 631) which was solubilized in water and brought to pH 7.5. This molecule is a diketonitrile, known as an efficient inhibitor of HPPD activity (Pallett, K. E. et al. 1997. Pestic. Sci. 50, 83-84).
The end concentrations of the two molecules in DMSO solution are 3.5 mM and 7 mM, respectively.

HPPD activity = experiment: In vivo activity of chimeric HPPDs (brown staining of isolated colonies); assay type: cell-based, E. coli; conditions: scale from 1 to 10, 10 being the most intense, reflects HPPD activity
Protocol: as §1
The brown staining was scored on a scale from 1 to 10, 10 being the most intense (as described in Example 1), by comparison with HPPDs derived from Arabidopsis thaliana (FAA) and Daucus carota (FCC).

Row | Molecule | end concentration giving identical results (total absence of staining) [1] | further results
1 | CCOc1c(S(=O)(=O)CC)ccc(C(=O)C2C(=O)CC(C)CC2=O)c1Cl (stereo not shown) [2-(2-chloro-3-ethoxy-4-(ethyl-sulphonyl)benzoyl)-5-methyl-1,3-cyclohexadione] | 7 mM | 
2 | CSc1ccc(C(=O)C(C#N)C(=O)C2CC2)c(S(C)(=O)=O)c1 (stereo not shown) [2-cyano-3-cyclopropyl-1-(2-methylsulphonyl-4-(methylthio)phenyl)-propane-1,3-dione] | 3.5 mM | 
3 | CS(=O)(=O)c1cc(C(F)(F)F)ccc1C(=O)C(C#N)C(=O)C1CC1 (stereo not drawn) [2-cyano-3-cyclopropyl-l-(2-methylsulphonyl-4-trifluoromethylphenyl)-propane-i,3-dione] |  | concentration at which a total absence of staining is observed ([1]; YT broth, 1% agarose, 5 mM L-tyrosine, 16 hours at 37° C., compound solubilized in water, pH 7.5, series 0 mM to 14 mM): 7 mM
4 | B1 |  | brown staining score (HPPD activity): 10
